From patent US11072741B2, “Optically anisotropic layer, method for producing the optically anisotropic layer, a laminate, polarizing plate, display device, liquid crystal compound, method for producing the liquid crystal compound, and carboxylic acid compound” (FUJIFILM Corporation, priority 2014, dated 2021)

Experiments:
[1] = Measurement and evaluation of solubility in MEK and CPN; type: physicochemical; conditions: for Solubility CPN wt %: cyclopentanone; for Solubility CPN wt % / Solubility MEK wt %: room temperature, visual observation, 5 wt % increments; for Solubility MEK wt %: methyl ethyl ketone; for Solubility Evaluation: versus comparative compound with the same Ar and side chain portion of Formula (Ia)
Experimental: Solubility measurements of the synthesized liquid crystal compounds were conducted by the following method. 50 mg of each compound was weighted into a 1.5 mL sample bottle, and solvent was added until the solid component became 40 wt % (75 mg). The solubility was determined to be 40 wt % if clear under visual observation after shaking well manually at room temperature. If undissolved residue was present, solvent was added such that the solid component became 35 wt % (+18 mg). The solubility was determined to be 35 wt % if clear under visual observation after shaking well manually at room temperature. If undissolved residue was present, solvent was added such that the solid component became 30 wt %. Similar operations were performed in increments of 5 wt %, and repeated until the solid component became 5 wt %. If undissolved residue was present, the solubility was determined to be less than 5 wt % (<5 wt %), and measurements were completed. MEK (methyl ethyl ketone) and CPN (cyclopentanone) were utilized as solvents for measuring solubility.
The measured values of solubility were evaluated. The evaluations were conducted by using solubility of a compound of a Comparative Example having Ar (the aromatic ring at the center of General Formula 1) in common with the Examples and a side chain portion represented by Formula (Ia) as a reference, in a manner similar to that in the evaluation of the phase transition temperature. Evaluations of A through C were assigned according to the degree of improvement in solubility from the reference solubility.
(§1) For example, compound (I-1) and (I-2) were compared to Comparative Compound (Ia-1), and Compound (III-3) was compared to Comparative Compound (IIIa-3). The evaluation was carried out based on the following criteria.
A: solubility improved twofold or greater in plural solvents or a single solvent
B: solubility was the same or improved up to twofold in plural solvents or a single solvent
C: no improvement in solubility in plural solvents or a single solvent

[2] = Evaluation of phase transition temperature by polarizing microscope; type: physicochemical; conditions: for TNi(° C.) Isotropic Phase Transition Point / Tsm—N(° C.) Sm—N Transition Point: during temperature increase; for Phase Transition Temperature Evaluation of Decrease: versus comparative compound with the same Ar and side chain portion of Formula (Ia)
Excerpt: Here, the temperature at which the compound transitions from the smectic phase to the nematic phase may be easily measured by observation of the composition employing polarized light microscopy. For example, in the nematic phase, a schlieren texture specific to the nematic phase is observed, while the texture transitions to a focal conic fan texture in a smectic A phase. Therefore, the phase transition temperature can be measured by observing the textures with a polarizing microscope while increasing or decreasing the temperature.
The phase transition temperatures of the synthesized liquid crystal compounds of the Examples and Comparative Examples were observed using a polarizing microscope to evaluate the degrees of temperature decrease. Specifically, the compounds of the Examples were compared to the compounds of the Comparative Examples, which have different structures for the side chain portions thereof. That is, the phase transition temperature of a compound of a Comparative Example having Ar (the aromatic ring at the center of General Formula 1) in common with the Examples and a side chain portion represented by Formula (Ia) below was used as a reference. Evaluations of A through C were assigned according to the degree of temperature decrease from the reference phase transition temperature.
as §1
A: decrease in melting point or Sm-N (smectic-nematic) transition temperature is 20° C. or greater
B: decrease in melting point or Sm-N (smectic-nematic) transition temperature is 5° C. or greater and less than 20° C.
C: decrease in melting point or Sm-N (smectic-nematic) transition temperature is less than 5° C.
With respect to the phase transition temperature, the numerical value in parentheses represents the numerical value during temperature decrease, and other numerical values represent a numerical value during temperature increase.

Compound	melting point [°C]	Solubility CPN wt % [1] [wt %]	Solubility MEK wt % [1] [wt %]	TNi(° C.) Isotropic Phase Transition Point [2]	Tsm—N(° C.) Sm—N Transition Point [2] [°C]	Solubility Evaluation [1]	Phase Transition Temperature Evaluation of Decrease [2]
C=C(C)C(=O)OCCNC(=O)OCCc1ccc(OC(=O)[C@H]2CC[C@H](C(=O)Oc3ccc(OC(=O)[C@H]4CC[C@H](C(=O)Oc5ccc(CCOC(=O)NCCOC(=O)C(=C)C)cc5)CC4)c4c3SC(=C(C#N)C#N)S4)CC2)cc1 [Compound I-9]	130	20	5	220 °C	158	B (solubility was the same or improved up to twofold in plural solvents or a single solvent)	B (decrease in melting point or Sm-N (smectic-nematic) transition temperature is 5 °C or greater and less than 20° C.)
C=CCCCCCCCCC(=O)OCCc1ccc(OC(=O)[C@H]2CC[C@H](C(=O)Oc3ccc(OC(=O)[C@H]4CC[C@H](C(=O)Oc5ccc(CCOC(=O)CCCCCCCCC=C)cc5)CC4)c4c3SC(=C(C#N)C#N)S4)CC2)cc1 [Compound I-14]	126	25	10	185 °C	179	A (solubility improved twofold or greater in plural solvents or a single solvent)	B (decrease in melting point or Sm-N (smectic-nematic) transition temperature is 5 °C or greater and less than 20° C.)
N#CC(C#N)=C1Sc2c(OC(=O)[C@H]3CC[C@H](C(=O)Oc4ccc(CCOC(=O)CCCCCCCCC5CO5)cc4)CC3)ccc(OC(=O)[C@H]3CC[C@H](C(=O)Oc4ccc(CCOC(=O)CCCCCCCCC5CO5)cc4)CC3)c2S1 (stereo partly shown) [Compound I-15]	127	25	10	190 °C		A (solubility improved twofold or greater in plural solvents or a single solvent)	A (decrease in melting point or Sm-N (smectic-nematic) transition temperature is 20 °C or greater)
C=CC(=O)OCCCCCCOc1ccc(OC(=O)[C@H]2CC[C@H](C(=O)Oc3ccc(OC(=O)[C@H]4CC[C@H](C(=O)Oc5ccc(OCCCCCCOC(=O)C=C)cc5)CC4)c4c3SC(=C(C#N)C(=O)OC)S4)CC2)cc1 [IIIa-3]	131	10	<5	240 °C			
C=CC(=O)OCCCCCCOc1ccc(OC(=O)[C@H]2CC[C@H](C(=O)Oc3ccc(OC(=O)[C@H]4CC[C@H](C(=O)Oc5ccc(OCCCCCCOC(=O)C=C)cc5)CC4)c4c3SC(=C(C#N)C(=O)OCCC(C)(C)O)S4)CC2)cc1 [IIIa-7]	106	40	20	157 °C			
C=CC(=O)OCCCCCCOc1ccc(OC(=O)[C@H]2CC[C@H](C(=O)Oc3cc(C)c(OC(=O)[C@H]4CC[C@H](C(=O)Oc5ccc(OCCCCCCOC(=O)C=C)cc5)CC4)c4c3SC(=C(C#N)C#N)S4)CC2)cc1 [IVa-1]	189	10	<5	>250 ^ ° C.			
C=CC(=O)OCCCCCCOc1ccc(OC(=O)[C@H]2CC[C@H](C(=O)Oc3ccc(OC(=O)[C@H]4CC[C@H](C(=O)Oc5ccc(OCCCCCCOC(=O)C=C)cc5)CC4)c4c3SC(=C(C#N)C#N)S4)CC2)cc1 [Ia-1]	148	10	<5	>210 ^ ° C.	183		

More lines, main results first:

melting point [°C]	Solubility CPN wt % [1] [wt %]	Solubility MEK wt % [1] [wt %]	TNi(° C.) Isotropic Phase Transition Point [2]	Tsm—N(° C.) Sm—N Transition Point [2] [°C]	Compound	Solubility Evaluation [1]	Phase Transition Temperature Evaluation of Decrease [2]
102	20	10	176 °C	138	C=CC(=O)OCCCCOC(=O)Cc1ccc(OC(=O)[C@H]2CC[C@H](C(=O)Oc3ccc(OC(=O)[C@H]4CC[C@H](C(=O)Oc5ccc(CC(=O)OCCCCOC(=O)C=C)cc5)CC4)c4c3SC(=C(C#N)C#N)S4)CC2)cc1 [II-8]	A (solubility improved twofold or greater in plural solvents or a single solvent)	A (decrease in melting point or Sm-N (smectic-nematic) transition temperature is 20 °C or greater)
116	15	5	210 °C	122	C=CC(=O)OCCOC(=O)Cc1ccc(OC(=O)[C@H]2CC[C@H](C(=O)Oc3ccc(OC(=O)[C@H]4CC[C@H](C(=O)Oc5ccc(CC(=O)OCCOC(=O)C=C)cc5)CC4)c4c3SC(=C(C#N)C#N)S4)CC2)cc1 [II-9]	B (solubility was the same or improved up to twofold in plural solvents or a single solvent)	A (decrease in melting point or Sm-N (smectic-nematic) transition temperature is 20 °C or greater)
100	20	10	118 °C		C=CC(=O)OCCOC(=O)CCC(=O)OCCc1ccc(OC(=O)[C@H]2CC[C@H](C(=O)Oc3ccc(OC(=O)[C@H]4CC[C@H](C(=O)Oc5ccc(CCOC(=O)CCC(=O)OCCOC(=O)C=C)cc5)CC4)c4c3SC(=C(C#N)C(=O)OC)S4)CC2)cc1 [III-3]	A (solubility improved twofold or greater in plural solvents or a single solvent)	A (decrease in melting point or Sm-N (smectic-nematic) transition temperature is 20 °C or greater)
148	35	15	172 °C		C=CC(=O)OCCOC(=O)CCC(=O)OCCc1ccc(OC(=O)[C@H]2CC[C@H](C(=O)Oc3cc(C)c(OC(=O)[C@H]4CC[C@H](C(=O)Oc5ccc(CCOC(=O)CCC(=O)OCCOC(=O)C=C)cc5)CC4)c4c3SC(=C(C#N)C#N)S4)CC2)cc1 [IV-1]	A (solubility improved twofold or greater in plural solvents or a single solvent)	A (decrease in melting point or Sm-N (smectic-nematic) transition temperature is 20 °C or greater)
95	40	40	99 °C		C=CC(=O)OCCOC(=O)CCC(=O)OCCc1ccc(OC(=O)[C@H]2CC[C@H](C(=O)Oc3cc(OCC)c(OC(=O)[C@H]4CC[C@H](C(=O)Oc5ccc(CCOC(=O)CCC(=O)OCCOC(=O)C=C)cc5)CC4)c4c3SC(=C(C#N)C#N)S4)CC2)cc1 [IV-10]		
